The compounds below were run against T1, EP4R (Homo sapiens, UniProt P35408) (assay: biochemical). Conditions: 10 µM compound vs 10 nM 3H-PGE2.
T1 construct: Tango fusion cassette (only 'tango' is printed); expressed in transfected cells; host or cells: HTLA cells (tTA-dependent luciferase reporter, β-arrestin2-TEV fusion)
Assay type: binding

T1 sequence (P35408 whole entry, the tested form may be a part): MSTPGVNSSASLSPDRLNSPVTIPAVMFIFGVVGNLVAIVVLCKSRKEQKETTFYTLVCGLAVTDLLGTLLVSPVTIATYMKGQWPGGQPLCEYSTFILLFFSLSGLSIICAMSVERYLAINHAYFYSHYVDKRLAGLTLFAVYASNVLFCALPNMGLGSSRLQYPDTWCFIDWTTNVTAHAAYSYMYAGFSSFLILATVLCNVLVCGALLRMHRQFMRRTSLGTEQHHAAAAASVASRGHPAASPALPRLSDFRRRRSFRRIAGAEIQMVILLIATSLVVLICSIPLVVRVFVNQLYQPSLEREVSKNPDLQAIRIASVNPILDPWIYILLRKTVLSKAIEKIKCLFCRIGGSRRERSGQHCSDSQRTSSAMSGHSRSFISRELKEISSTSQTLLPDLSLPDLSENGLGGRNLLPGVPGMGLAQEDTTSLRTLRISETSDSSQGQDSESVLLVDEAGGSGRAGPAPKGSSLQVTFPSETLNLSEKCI

Structure (SMILES)	% displacement of 3HPGE2 at 10 µM
O=C(O)[C@H]1C[C@@H](C(=O)N(Cc2ccsc2)c2ccccc2)C1 [Compound 33, OC(=O)[C@H]1C[C@H](C1)C(=O)N(CC=2C=CSC2)C=3C=CC=CC3]	-8.1%
O=C(O)[C@H]1C[C@@H](C(=O)N(Cc2ccsc2)c2ccccc2)C1 [Compound 31, OC(=O)[C@H]1C[C@H](C1)C(=O)N(CC=2C=CSC2)C=3C=CC=CC3]	-9.4%

Same assay, conditions: […], read-out: % displacement of 3HPGE2 at 10 µM, 10 µM compound vs 10 nM 3H-PGE2

Structure (SMILES)	inhibition at 10 µM
O=C(O)CCC(Cc1ccccc1)NS(=O)(=O)c1csc2ccccc12 (stereo not shown) [Compound 15, OC(=O)CCC(CC=1C=CC=CC1)NS(=O)(=O)C2=CSC=3C=CC=CC23]	-14.5%
CN(c1nc2cccc(F)c2s1)[C@H]1C[C@@H](C(=O)O)C1 [Compound 8, CN([C@H]1C[C@H](C1)C(=O)O)C2=NC=3C=CC=C(F)C3S2]	-18.4%
O=C(O)c1cc(NS(=O)(=O)c2cnc3ccsc3c2)ccc1O [Compound 27, OC(=O)C=1C=C(NS(=O)(=O)C=2C=NC=3C=CSC3C2)C=CC1O]	-10.4%
CC(CN(C(=O)c1ccn(-c2ccccc2)n1)C1CC1)C(=O)O (stereo not shown) [Compound 17, CC(CN(C1CC1)C(=O)C=2C=CN(N2)C=3C=CC=CC3)C(=O)O]	-14%
COc1ccc(Cl)cc1C(Nc1ncc(C(=O)O)s1)c1ccccc1 (stereo not shown) [Compound 10, COC=1C=CC(Cl)=CC1C(NC2=NC=C(S2)C(=O)O)C=3C=CC=CC3]	-17.8%
Cn1nc(-c2ccccc2)cc1CNC(=O)NC1CCC(C(=O)O)CC1 (stereo not shown) [Compound 48, CN1N=C(C=C1CNC(=O)NC2CCC(CC2)C(=O)O)C=3C=CC=CC3]	-0.1%
Cc1cccc2sc(N(C)CC(C)c3nnn[nH]3)nc12 (stereo not shown) [Compound 47, CC(CN(C)C1=NC=2C(C)=CC=CC2S1)C3=NN=NN3]	-1.1%
O=C(O)CCc1cccc(NC(=O)c2c(C(F)(F)F)nc3n2CCCC3)c1 [Compound 5, OC(=O)CCC=1C=CC=C(NC(=O)C2=C(N=C3CCCCN23)C(F)(F)F)C1]	-19%
CN(C(=O)c1cc(N2CCCC2=O)cc(C(F)(F)F)c1)c1nnn[nH]1 [Compound 44, CN(C(=O)C=1C=C(C=C(C1)C(F)(F)F)N2CCCC2=O)C3=NN=NN3]	-2.6%
Cc1c(C(=O)N(C)c2nnn[nH]2)cnn1-c1ccc(Cl)cc1 [Compound 69, CN(C(=O)C=1C=NN(C1C)C=2C=CC(Cl)=CC2)C3=NN=NN3]	37.7%
O=C(NC1CC(C(=O)O)C1)N[C@@H]1CCC[C@@H]1n1cccn1 (stereo partly shown) [Compound 4, OC(=O)C1CC(C1)NC(=O)N[C@@H]2CCC[C@@H]2N3C=CC=N3]	-21.9%
O=C(Nc1cccc(-n2nn[nH]c2=O)c1)C1(c2ccccn2)CC1 [Compound 32, O=C(NC=1C=CC=C(C1)N2N=NNC2=O)C3(CC3)C=4C=CC=CN4]	-8.5%
CC(c1cn(-c2ccccc2)nn1)N1CCN(C(=O)C(=O)O)CC1 (stereo not shown) [Compound 49, CC(N1CCN(CC1)C(=O)C(=O)O)C2=CN(N=N2)C=3C=CC=CC3]	0.8%
CC(CN(C)c1nc(C(F)(F)F)cs1)C(=O)O (stereo not shown) [Compound 9, CC(CN(C)C1=NC(=CS1)C(F)(F)F)C(=O)O]	-18.1%
NC(=O)c1cc(C(=O)Nc2ccc(CC(=O)O)cc2)nn1-c1ccccc1 [Compound 6, NC(=O)C1=CC(=NN1C=2C=CC=CC2)C(=O)NC=3C=CC(CC(=O)O)=CC3]	-18.8%
CN(C(=O)c1nc(C2CC2)n(-c2ccccc2Cl)n1)c1nnn[nH]1 [Compound 46, CN(C(=O)C=1N=C(C2CC2)N(N1)C=3C=CC=CC3Cl)C4=NN=NN4]	-1.5%
Cc1cccc(C2(C(=O)NC3CCSC4(C3)CC(C(=O)O)C4)CC2)c1 (stereo not shown) [Compound 45, CC=1C=CC=C(C1)C2(CC2)C(=O)NC3CCSC4(CC(C4)C(=O)O)C3]	-1.8%
O=C(O)C(NS(=O)(=O)CCc1cccc(Cl)c1)C(O)c1ccccc1 (stereo not shown) [Compound 29, OC(C(NS(=O)(=O)CCC=1C=CC=C(Cl)C1)C(=O)O)C=2C=CC=CC2]	-10.2%
Cc1nn(CC(F)(F)F)c(C)c1CC(=O)N(C1CC1)C(C)C(=O)O (stereo not shown) [Compound 43, CC(N(C1CC1)C(=O)CC=2C(C)=NN(CC(F)(F)F)C2C)C(=O)O]	-2.6%
Cc1ccc(CN(Cc2ccco2)C(=O)CSc2nnc(S)s2)s1 [Compound 37, CC1=CC=C(CN(CC2=CC=CO2)C(=O)CSC3=NN=C(S)S3)S1]	-5.2%
CC(NC(=O)C1CC2(CC(C(=O)O)C2)C1)c1ccc(C(F)(F)F)s1 (stereo not shown) [Compound 34, CC(NC(=O)C1CC2(CC(C2)C(=O)O)C1)C3=CC=C(S3)C(F)(F)F]	-6.1%
O=C(O)c1cc2c(s1)CCCN(C(=O)C1CC13CCc1ccccc13)C2 (stereo not shown) [Compound 26, OC(=O)C1=CC=2CN(CCCC2S1)C(=O)C3CC43CCC=5C=CC=CC54]	-10.6%
CC1CC(C(=O)O)CN(C(=O)C2(c3cccc(C(F)(F)F)c3)CC2)C1 (stereo not shown) [Compound 3, CC1CC(CN(C1)C(=O)C2(CC2)C=3C=CC=C(C3)C(F)(F)F)C(=O)O]	-22.5%
COc1ccc(-c2cc(CS(=O)(=O)c3nnc(C)[nH]3)on2)cc1 [Compound 22, COC=1C=CC(=CC1)C=2C=C(CS(=O)(=O)C3=NN=C(C)N3)ON2]	-11.6%
O=C(O)Cc1ccc(NC(=O)c2cncc(-c3ccccc3)c2)cc1 [Compound 51, OC(=O)CC=1C=CC(NC(=O)C=2C=NC=C(C2)C=3C=CC=CC3)=CC1]	1%

Structure (SMILES)	inhibition at 10 µM
O=C(NCc1cc(Cl)cc2c1OCC2)c1cc2sc(C(=O)O)cc2[nH]1 [Compound 13, OC(=O)C1=CC=2NC(=CC2S1)C(=O)NCC=3C=C(Cl)C=C4CCOC43]	-16.5%
O=C(O)CCC1CCCN(C(=O)c2nn(-c3ccccc3)c3c2CCC3)C1 (stereo not shown) [Compound 61, OC(=O)CCC1CCCN(C1)C(=O)C2=NN(C=3CCCC23)C=4C=CC=CC4]	15.1%
Cn1nnnc1NCC(C(=O)OCc1ccccc1)c1ccccc1 (stereo not shown) [Compound 67, CN1N=NN=C1NCC(C(=O)OCC=2C=CC=CC2)C=3C=CC=CC3]	31.5%
CC(Sc1ccccc1Cl)C(=O)N1CCCC(Cc2nnn[nH]2)C1 (stereo not shown) [Compound 58, CC(SC=1C=CC=CC1Cl)C(=O)N2CCCC(CC3=NN=NN3)C2]	10.8%
CC(c1nc(-c2cccc(C(F)(F)F)c2)no1)S(=O)(=O)c1nnc[nH]1 (stereo not shown) [Compound 50, CC(C1=NC(=NO1)C=2C=CC=C(C2)C(F)(F)F)S(=O)(=O)C3=NN=CN3]	0.9%
Cc1ccc(-n2c(SCc3nnn[nH]3)nc3ccccc3c2=O)cc1 [Compound 11, CC=1C=CC(=CC1)N2C(SCC3=NN=NN3)=NC=4C=CC=CC4C2=O]	-17.6%
CN(c1cccc(CC(=O)O)c1)S(=O)(=O)CC1Cc2ccccc2C1 [Compound 23, CN(C=1C=CC=C(CC(=O)O)C1)S(=O)(=O)CC2CC=3C=CC=CC3C2]	-11.1%
O=C(O)CCN(Cc1ccccc1)C(=O)CC1(C(F)(F)F)CC1 [Compound 21, OC(=O)CCN(CC=1C=CC=CC1)C(=O)CC2(CC2)C(F)(F)F]	-12.3%
CC(CN(C(=O)c1cc2c(C(F)F)nn(C)c2s1)C1CC1)C(=O)O (stereo not shown) [Compound 24, CC(CN(C1CC1)C(=O)C2=CC=3C(=NN(C)C3S2)C(F)F)C(=O)O]	-10.7%
O=C(NCc1ccc(C(F)F)cc1)NC[C@H]1CC[C@H](C(=O)O)CC1 [Compound 41, OC(=O)[C@H]1CC[C@H](CNC(=O)NCC=2C=CC(=CC2)C(F)F)CC1]	-3.4%
Cc1cc(C)cc(C2(C(=O)NC(C)c3ncc(C(=O)O)s3)CC2)c1 (stereo not shown) [Compound 54, CC(NC(=O)C1(CC1)C=2C=C(C)C=C(C)C2)C3=NC=C(S3)C(=O)O]	3.6%
O=C(O)c1ccc(C2CCCN2S(=O)(=O)c2ccccc2-c2ccno2)s1 (stereo not shown) [Compound 30, OC(=O)C1=CC=C(S1)C2CCCN2S(=O)(=O)C=3C=CC=CC3C4=CC=NO4]	-10.1%
CCc1ncc(CN(CC(=O)O)C(=O)OCc2cccnc2)s1 [Compound 2, CCC1=NC=C(CN(CC(=O)O)C(=O)OCC=2C=CC=NC2)S1]	-23.1%
CCc1ccc(C(=O)Nc2cccc(-c3nnn[nH]3)c2)c(C)n1 [Compound 63, CCC=1C=CC(C(=O)NC=2C=CC=C(C2)C3=NN=NN3)=C(C)N1]	19.3%
O=C(O)c1ccc(-c2ccc(C=C3CSc4ccc(F)cc4C3=O)o2)cc1O [Compound 56, OC(=O)C=1C=CC(=CC1O)C2=CC=C(C=C3CSC=4C=CC(F)=CC4C3=O)O2]	7.9%
CC(CN(C(=O)CCc1ccc2ccccc2c1)C1CC1)C(=O)O (stereo not shown) [Compound 19, CC(CN(C1CC1)C(=O)CCC=2C=CC=3C=CC=CC3C2)C(=O)O]	-13.2%
CC1(C(=O)O)CCN(C(=O)C(O)c2ccc(Cl)c(Br)c2)C1 (stereo not shown) [Compound 14, CC1(CCN(C1)C(=O)C(O)C=2C=CC(Cl)=C(Br)C2)C(=O)O]	-14.7%
O=C(O)C1(n2cc(Cc3ccc(F)cc3F)cn2)CCC(c2ccccc2)CC1 (stereo not shown) [Compound 1, OC(=O)C1(CCC(CC1)C=2C=CC=CC2)N3C=C(CC=4C=CC(F)=CC4F)C=N3]	-28.7%
CC1(COC(=O)c2ccc(NS(C)(=O)=O)nc2)CC1(F)Cl (stereo not shown) [Compound 7, CC1(COC(=O)C=2C=CC(NS(=O)(=O)C)=NC2)CC1(F)Cl]	-18.4%
CCSc1cc(C(=O)O)ccc1NC(=O)c1cnn(-c2ccccc2F)c1 [Compound 59, CCSC=1C=C(C=CC1NC(=O)C=2C=NN(C2)C=3C=CC=CC3F)C(=O)O]	11.6%
O=C(O)CC[C@H]1C[C@@H](NC(=O)C(O)c2ccc(Cl)cc2Cl)C1 (stereo partly shown) [Compound 18, OC(C(=O)N[C@H]1C[C@@H](CCC(=O)O)C1)C=2C=CC(Cl)=CC2Cl]	-13.7%
CN(Cc1nccn1C1CC1)c1ncnc2[nH]c(C(=O)O)cc12 [Compound 16, CN(CC1=NC=CN1C2CC2)C=3N=CN=C4NC(=CC34)C(=O)O]	-14.5%
c1ccc(-c2nc(SCc3nnn[nH]3)oc2-c2ccccc2)cc1 [Compound 20, C(SC1=NC(=C(O1)C=2C=CC=CC2)C=3C=CC=CC3)C4=NN=NN4]	-12.7%
CN(C(=O)C1CCCC1Cc1ccccc1)[C@H]1C[C@@H](C(=O)O)C1 (stereo partly shown) [Compound 40, CN([C@H]1C[C@H](C1)C(=O)O)C(=O)C2CCCC2CC=3C=CC=CC3]	-4%
CC1(C(=O)O)CC(NS(=O)(=O)c2cc3cc(Cl)ccc3s2)CCO1 (stereo not shown) [Compound 38, CC1(CC(CCO1)NS(=O)(=O)C2=CC=3C=C(Cl)C=CC3S2)C(=O)O]	-5.2%

Reference: publication PMC10700596 (Nature Communications, 2023)
